Experimental findings from ChEMBL document CHEMBL1201862, “PubChem BioAssay data set” (2004) are described below.

Some test systems named below: A498; ACHN; BT-549; CCRF-CEM; COLO 205; Hs-578T; K562; LOX IMVI; MCF7; NCI-H460; NCI-H522; NCI/ADR-RES; OVCAR-4; SF-268; SF-295; SK-OV-3; SW-620; T47D; UACC-62; UO-31.
Common to all, as to assay: NCI-60 cell line screen, 48 h

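How tested: cells in 96-well plates exposed to compound for 48 hours at five concentrations. GI50 = concentration required for 50% inhibition of growth.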 The source made the active and inactive calls. No stated cut-off is given here; in the data, active = GI50 up to about 1.1 µM and inactive = higher.

On to `Oc1cccc2c(Br)ccnc12`, for which the GI50 in the assay with A498 was 7.82 µM (inactive); with ACHN, 2.58 µM (inactive); in the assay with BT-549, 8.93 µM (inactive); in the assay with CCRF-CEM, 0.38 µM (active); with COLO 205, 11.2 µM (inactive); in the assay on Hs-578T, 8.55 µM (inactive). For the same compound, the GI50 in the assay with K562 is 0.593 µM (active); with LOX IMVI, 0.713 µM (active); with MCF7, 4.43 µM (inactive); with NCI-H460 it was 3.57 µM (inactive); in the assay with NCI-H522, 3.16 µM (inactive); in the assay on NCI/ADR-RES, 2.08 µM (inactive). Moreover, the GI50 was 2.55 µM (inactive) in the assay with OVCAR-4; 0.767 µM (active) in the assay on SF-268; 1.46 µM (inactive) in the assay with SF-295; 26.7 µM (inactive) in the assay with SK-OV-3; 3.51 µM (inactive) in the assay on SW-620; 3.17 µM (inactive) with T47D. Moreover, the GI50 in the assay on UACC-62 is 1.47 µM (inactive); with UO-31 it was 2.84 µM (inactive).

With `Oc1cccc(-c2cn3cc(C(F)(F)F)ccc3n2)c1`, the GI50 was 37.5 µM (inactive) in the assay on A498; 39.9 µM (inactive) in the assay with ACHN; 37.2 µM (inactive) with BT-549; 24.1 µM (inactive) in the assay on CCRF-CEM; 39.2 µM (inactive) in the assay with COLO 205; 74.6 µM (inactive) in the assay with Hs-578T. In addition, the GI50 was 30.5 µM (inactive) in the assay with K562; 32.6 µM (inactive) with LOX IMVI; 15.4 µM (inactive) with MCF7; 26.1 µM (inactive) in the assay on NCI-H460; 13.5 µM (inactive) in the assay with NCI-H522; 25.9 µM (inactive) with NCI/ADR-RES. The GI50 in the assay on OVCAR-4 is 22.1 µM (inactive); in the assay with SF-268 it was 38.8 µM (inactive); with SF-295, 24.5 µM (inactive); in the assay on SK-OV-3, 33.4 µM (inactive); with SW-620 it was 67.8 µM (inactive); with T47D it was 2.39 µM (inactive). Also, the GI50 in the assay with UACC-62 is 30.7 µM (inactive); with UO-31, 0.338 µM (active).

With `NS(=O)(=O)c1ccc(NC(=O)c2ccc3nc4ccccc4c(Nc4ccc(S(N)(=O)=O)cc4)c3c2)cc1`, the GI50 in the assay with A498, in the assay with ACHN, in the assay on BT-549, with CCRF-CEM, in the assay with COLO 205 and in the assay with Hs-578T was > 100 µM (inactive) throughout. Further, the GI50 in the assay with K562 is > 100 µM (inactive); with LOX IMVI it was > 100 µM (inactive); in the assay with MCF7, > 100 µM (inactive); with NCI-H460 it was 8.75 µM (inactive); in the assay on NCI-H522, > 100 µM (inactive); in the assay on NCI/ADR-RES, > 100 µM (inactive). The GI50 with OVCAR-4 was > 100 µM (inactive); with SF-268, 87.5 µM (inactive); in the assay with SF-295, > 100 µM (inactive); with SK-OV-3, > 100 µM (inactive); with SW-620, > 100 µM (inactive); in the assay on T47D it was > 100 µM (inactive). For the same compound, the GI50 in the assay with UACC-62 and in the assay on UO-31 was > 100 µM (inactive) in each case.

Turning to `COc1ccccc1CNC(=O)[C@H](Cc1ccc(O)cn1)NC(C)=O`, the GI50 in the assay on A498, with ACHN, with BT-549, in the assay on CCRF-CEM, with COLO 205 and in the assay on Hs-578T was > 100 µM (inactive) each time. The GI50 with K562, in the assay on LOX IMVI, in the assay with MCF7, in the assay on NCI-H460, with NCI-H522 and in the assay on NCI/ADR-RES was > 100 µM (inactive) throughout. Besides, the GI50 in the assay on OVCAR-4, in the assay with SF-268, in the assay with SF-295, in the assay on SK-OV-3, in the assay on SW-620 and with T47D was > 100 µM (inactive) in each case. The GI50 in the assay on UACC-62 and with UO-31 was > 100 µM (inactive) each time.

As for `Cc1ccc(S(=O)(=O)Nc2nc3ccccc3c(=O)n2C2CCCCC2)cc1`, the GI50 in the assay on A498 was > 100 µM (inactive); with ACHN it was > 100 µM (inactive); in the assay on BT-549 it was 28.1 µM (inactive); in the assay with CCRF-CEM, > 100 µM (inactive); with COLO 205 it was > 100 µM (inactive); in the assay on Hs-578T, 62.5 µM (inactive). Moreover, the GI50 in the assay on K562 was > 100 µM (inactive); in the assay on LOX IMVI, > 100 µM (inactive); in the assay on MCF7, > 100 µM (inactive); in the assay with NCI-H460 it was 97.1 µM (inactive); in the assay on NCI-H522 it was 41.7 µM (inactive); in the assay with NCI/ADR-RES, > 100 µM (inactive). Further, the GI50 was 51.8 µM (inactive) in the assay on OVCAR-4; > 100 µM (inactive) in the assay on SF-268; 23.1 µM (inactive) in the assay with SF-295; > 100 µM (inactive) in the assay with SK-OV-3; > 100 µM (inactive) with SW-620; > 100 µM (inactive) in the assay with T47D. Besides, the values for the GI50 in the assay with UACC-62 and in the assay with UO-31 were 77.4 µM (inactive) and > 100 µM (inactive), respectively.

For the compound `N#CC(c1ccccc1)N(CCc1ccccc1)C(=O)Oc1ccccc1` (stereo not drawn), the GI50 in the assay with A498 was > 100 µM (inactive); in the assay with ACHN, > 100 µM (inactive); in the assay on BT-549, > 100 µM (inactive); with CCRF-CEM, > 100 µM (inactive); in the assay on COLO 205 it was > 100 µM (inactive); in the assay on Hs-578T, 44.8 µM (inactive). The GI50 in the assay with K562, in the assay with LOX IMVI, in the assay with MCF7, in the assay with NCI-H522, in the assay with NCI/ADR-RES and in the assay with OVCAR-4 was > 100 µM (inactive) in each case. Moreover, the GI50 in the assay on SF-268, in the assay with SF-295, with SK-OV-3, in the assay on SW-620, in the assay with T47D and with UACC-62 was > 100 µM (inactive) throughout. Also, in the assay with UO-31, the GI50 was > 100 µM (inactive).

In the case of `C#CCN(C(=O)C(F)(F)F)C(/C=C\C(=O)OC)(C(=O)OCC)C(=O)OCC`, the GI50 with A498 was > 100 µM (inactive); in the assay with ACHN it was > 100 µM (inactive); in the assay on BT-549 it was > 100 µM (inactive); in the assay on CCRF-CEM, > 100 µM (inactive); with COLO 205 it was > 10 µM (inactive); in the assay on Hs-578T it was > 100 µM (inactive). Further, the GI50 in the assay with K562, in the assay with LOX IMVI, in the assay on MCF7, with NCI-H460, in the assay with NCI-H522 and in the assay on NCI/ADR-RES was > 100 µM (inactive) throughout. The GI50 in the assay on OVCAR-4, with SF-268, with SF-295, in the assay on SK-OV-3, with SW-620 and in the assay with T47D was > 100 µM (inactive) throughout. Also, the GI50 in the assay on UACC-62 and in the assay on UO-31 was > 100 µM (inactive) each time.

In the case of `Cn1c(N(CCO)CCO)cnc1[N+](=O)[O-]`, the GI50 in the assay with A498, in the assay with ACHN, with BT-549, with CCRF-CEM, with COLO 205 and with Hs-578T was > 100 µM (inactive) each time. The GI50 in the assay with K562, in the assay with LOX IMVI, with MCF7, in the assay with NCI-H460, in the assay on NCI-H522 and in the assay with NCI/ADR-RES was > 100 µM (inactive) in each case. The GI50 with OVCAR-4, in the assay on SF-268, in the assay with SF-295, in the assay with SK-OV-3, in the assay with SW-620 and in the assay on T47D was > 100 µM (inactive) each time. The GI50 in the assay on UACC-62 and with UO-31 was > 100 µM (inactive) each time.

As to `C=C1CC2[C@H](C)C(=O)CCC2(C)C2=C1C1CCC(C(C)CCC(=C)C(C)C(=O)O)C1(C)CC2=O` (stereo partly drawn), the GI50 was > 100 µM (inactive) in the assay on A498; 31.9 µM (inactive) in the assay with ACHN; 37.2 µM (inactive) in the assay on BT-549; 11.8 µM (inactive) in the assay with CCRF-CEM; 49.4 µM (inactive) in the assay with COLO 205; > 100 µM (inactive) in the assay on Hs-578T. The GI50 with K562 was 9.75 µM (inactive); in the assay on LOX IMVI it was 17.9 µM (inactive); in the assay with MCF7 it was 83.9 µM (inactive); in the assay on NCI-H460, 34.4 µM (inactive); in the assay on NCI-H522, 47.1 µM (inactive); with NCI/ADR-RES, 84.1 µM (inactive). In addition, the GI50 in the assay on OVCAR-4 is 48.4 µM (inactive); with SF-268, > 100 µM (inactive); in the assay on SF-295 it was 62.5 µM (inactive); in the assay on SK-OV-3 it was 89.5 µM (inactive); in the assay with SW-620, 61.7 µM (inactive); with T47D it was 41.6 µM (inactive). In addition, the GI50 with UACC-62 is 51.8 µM (inactive); in the assay with UO-31 it was 30.9 µM (inactive).

Turning to `C/C=C1\CC(C(=O)OCC)CCCCCCCCCCC1=O` (stereo not drawn), the GI50 is > 100 µM (inactive) in the assay on A498; 75 µM (inactive) in the assay on ACHN; 82.8 µM (inactive) in the assay on BT-549; 37 µM (inactive) in the assay with CCRF-CEM; > 100 µM (inactive) in the assay with COLO 205; 28.9 µM (inactive) in the assay on Hs-578T. Further, the GI50 is 28.8 µM (inactive) with LOX IMVI; 32.8 µM (inactive) with MCF7; 54.1 µM (inactive) in the assay on NCI-H460; 25.5 µM (inactive) in the assay with NCI-H522; 34.7 µM (inactive) in the assay on NCI/ADR-RES; 55.5 µM (inactive) with OVCAR-4. Besides, the GI50 in the assay with SF-268 was 53.5 µM (inactive); with SF-295 it was 57.4 µM (inactive); with SK-OV-3, > 100 µM (inactive); with SW-620, 38.5 µM (inactive); with T47D, 26.7 µM (inactive); in the assay with UACC-62, 91.2 µM (inactive). In addition, the GI50 with UO-31 was 37.3 µM (inactive).
